Experimental data published in patent US6770597B2, “Benzohydrazide derivatives as herbicides and desiccant compositions containing them” (Ishihara Sangyo Kaisha, Ltd., priority 2002, dated 2004).

Experiments:
Type in all cases: in vivo
[1] = tested on: barnyardgrass (Echinochloa crus-galli, ECHCG); experiment: Greenhouse herbicide screen, post-emerge application, phytotoxicity rating; conditions: POST emergent, 14 days after application, scale 0-100
Summary of the method: (§1)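 Acetone-dissolved compounds are sprayed over pots at 15 to 1000 g ai/ha with a flat fan nozzle 40–45 cm above the target. Pre-emerge pots are top-watered immediately to incorporate; post-emerge pots are bottom-watered. Plants are rated 0–100 after 14 days.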

[2] = tested on: cocklebur (Xanthium strumarium, XANST); experiment: as above; conditions: POST emergent, 14 days after application, scale 0-100
Summary of the method: as §1

[3] = tested on: common ragweed (Ambrosia artemisiifolia L., AMBEL); experiment: as above; conditions: POST emergent, 14 days after application, scale 0-100
Summary of the method: as §1

[4] = tested on: green foxtail (Setaria viridis, SETVI); experiment: as above; conditions: POST emergent, 14 days after application, scale 0-100
Summary of the method: as §1

[5] = tested on: ivyleaf morningglory (Ipomoea hederacea, IPOHE); experiment: as above; conditions: POST emergent, 14 days after application, scale 0-100
Summary of the method: as §1

[6] = tested on: johnsongrass (Sorghum halepense, SORHA); experiment: as above; conditions: POST emergent, 14 days after application, scale 0-100
Summary of the method: as §1

[7] = tested on: lambsquarters (Chenopodium album, CHEAL); experiment: as above; conditions: POST emergent, 14 days after application, scale 0-100
Summary of the method: as §1

[8] = tested on: large crabgrass (Digitaria sanguinalis, DIGSA); experiment: as above; conditions: POST emergent, 14 days after application, scale 0-100
Summary of the method: as §1

[9] = tested on: redroot pigweed (Amaranthus retrofiexus, AMARE); experiment: as above; conditions: POST emergent, 14 days after application
Summary of the method: as §1

[10] = tested on: sicklepod (Cassia obtusifolia, CASOB); experiment: as above; conditions: POST emergent, 14 days after application, scale 0-100
Summary of the method: as §1

[11] = tested on: velvetleaf (Abutilon theophrasti, ABUTH); experiment: as above; conditions: POST emergent, 14 days after application, scale 0-100
Summary of the method: as §1

[12] = tested on: field corn (Zea mays L., var. Dekalb 535, CORN); experiment: Greenhouse herbicide screen, post-emerge application, crop damage rating; conditions: POST emergent, 14 days after application, scale 0-100
Excerpt: (§2) A standard greenhouse herbicide activity screening system was used to evaluate the herbicidal efficacy and crop safety of these test compounds. Seven broadleaf weed species including redroot pigweed (Amaranthus retrofiexus, AMARE), velvetleaf (Abutilon theophrasti, ABUTH), sicklepod (Cassia obtusifolia, CASOB), ivyleaf morningglory (Ipomoea hederacea, IPOHE), lambsquarters (Chenopodium album, CHEAL), common ragweed (Ambrosia artemisiifolia L., AMBEL), and cocklebur (Xanthium strumarium, XANST) were used as test species. Four grass weed species including green foxtail (Setaria viridis, SETVI), barnyardgrass (Echinochloa crus-galli, ECHCG), johnsongrass (Sorghum halepense, SORHA), and large crabgrass (Digitaria sanguinalis, DIGSA) were also used. In addition, four crop species, field corn (Zea mays L., var. Dekalb 535, CORN), soybean (Glycine max L., var. Pella 86, SOY), upland rice (Oryza sp., var.Cocodrie, RICE) and wheat (Triticum aestivum L.) were included.
(§3) All plants were grown in 10 cm square plastic pots which were filled with a sandy loam soil mix. For pre-emerge tests, seeds were planted one day prior to application of the test compounds. For post-emerge tests, seeds were planted 8-21 days prior to the test to allow emergence and good foliage development prior to application of the test substances. At the time of the post-emerge application, plants of all species were usually at the 2-3 leaf stage of development.
(§4) All test compounds were dissolved in acetone and applied to the test units in a volume of 187 l/ha. Test materials were applied at rates ranging from 15 g ai/ha to 1000 g ai/ha using a track sprayer equipped with a TJ8001E even flow flat fan spray nozzle. Plants were arranged on a shelf so that the top of the canopy (post-emerge) or top of the soil surface (pre-emerge) was 40-45 cm below the nozzle. Pressurized air was used to force the test solution through the nozzle as it was mechanically advanced (via electrically driven chain drive) over the top of all test plants/pots. This application simulates a typical commercial field herbicide application.
(§5) Pre-emergence tests were top watered immediately after treatment to incorporate the test materials, then routinely top-watered for normal growth. Post-emerge test units were always bottom-watered.
(§6) At 14 days after application of the test materials, phytotoxicity ratings were recorded. A rating scale of 0-100 was used as previously described in Research Methods in Weed Science, 2nd edition, B. Truelove, Ed., Southern Weed Science Society, Auburn University, Auburn, Ala., 1977. Briefly, “0” corresponds to no damage and “100” corresponds to complete death of all plants in the test unit. This scale was used both to determine efficacy against weed species and damage to crop species. Herbicide activity data for various compounds of this invention, which are shown by compound No. in Tables 1-12, are shown in Tables 13 and 14.

[13] = tested on: upland rice (Oryza sp., var.Cocodrie, RICE); experiment: as above; conditions: POST emergent, 14 days after application, scale 0-100
Excerpt: as §2, §3, §4, §5, §6

[14] = tested on: barnyardgrass (Echinochloa crus-galli, ECHCG); experiment: Greenhouse herbicide screen, pre-emerge application, phytotoxicity rating; conditions: PRE emergent, 14 days after application, rating scale 0-100
Summary of the method: as §1

[15] = tested on: cocklebur (Xanthium strumarium, XANST); experiment: as above; conditions: PRE emergent, 14 days after application, rating scale 0-100
Summary of the method: as §1

[16] = tested on: common ragweed (Ambrosia artemisiifolia L., AMBEL); experiment: as above; conditions: PRE emergent, 14 days after application, rating scale 0-100
Summary of the method: as §1

[17] = tested on: green foxtail (Setaria viridis, SETVI); experiment: as above; conditions: PRE emergent, 14 days after application, rating scale 0-100
Summary of the method: as §1

[18] = tested on: ivyleaf morningglory (Ipomoea hederacea, IPOHE); experiment: as above; conditions: PRE emergent, 14 days after application, rating scale 0-100
Summary of the method: as §1

[19] = tested on: johnsongrass (Sorghum halepense, SORHA); experiment: as above; conditions: PRE emergent, 14 days after application, rating scale 0-100
Summary of the method: as §1

[20] = tested on: lambsquarters (Chenopodium album, CHEAL); experiment: as above; conditions: PRE emergent, 14 days after application, rating scale 0-100
Summary of the method: as §1

[21] = tested on: large crabgrass (Digitaria sanguinalis, DIGSA); experiment: as above; conditions: PRE emergent, 14 days after application, rating scale 0-100
Summary of the method: as §1

[22] = tested on: redroot pigweed (Amaranthus retrofiexus, AMARE); experiment: as above; conditions: PRE emergent, 14 days after application, rating scale 0-100
Summary of the method: as §1

[23] = tested on: sicklepod (Cassia obtusifolia, CASOB); experiment: as above; conditions: PRE emergent, 14 days after application, rating scale 0-100
Summary of the method: as §1

[24] = tested on: velvetleaf (Abutilon theophrasti, ABUTH); experiment: as above; conditions: PRE emergent, 14 days after application, rating scale 0-100
Summary of the method: as §1

[25] = tested on: field corn (Zea mays L., var. Dekalb 535, CORN); experiment: Greenhouse herbicide screen, pre-emerge application, crop damage rating; conditions: PRE emergent, 14 days after application, rating scale 0-100
Excerpt: as §2, §3, §4, §5, §6

[26] = tested on: upland rice (Oryza sp., var.Cocodrie, RICE); experiment: as above; conditions: PRE emergent, 14 days after application, rating scale 0-100
Excerpt: as §2, §3, §4, §5, §6

CC1CCCC(C)N1NC(=O)c1cc(-n2c(=O)cc(C(F)(F)F)n(C)c2=S)c(F)cc1Cl (stereo not shown) [Compound 1-15]
phytotoxicity rating ECHCO ([1]; 63 g ai/ha): 50 | phytotoxicity rating ECHCO ([1]; 250 g ai/ha): 80 | phytotoxicity rating XANST ([2]; 63 g ai/ha): 100 | phytotoxicity rating XANST ([2]; 250 g ai/ha): 100 | phytotoxicity rating AMBEL ([3]; 63 g ai/ha): 80 | phytotoxicity rating AMBEL ([3]; 250 g ai/ha): 95 | phytotoxicity rating SETVI ([4]; 63 g ai/ha): 20 | phytotoxicity rating SETVI ([4]; 250 g ai/ha): 55 | phytotoxicity rating IPOHE ([5]; 63 g ai/ha): 75 | phytotoxicity rating IPOHE ([5]; 250 g ai/ha): 100 | phytotoxicity rating SORHA ([6]; 63 g ai/ha): 0 | phytotoxicity rating SORHA ([6]; 250 g ai/ha): 30 | phytotoxicity rating CHEAL ([7]; 63 g ai/ha): 98 | phytotoxicity rating CHEAL ([7]; 250 g ai/ha): 100 | phytotoxicity rating DIGSA ([8]; 63 g ai/ha): 10 | phytotoxicity rating DIGSA ([8]; 250 g ai/ha): 10 | phytotoxicity rating AMARE ([9]; 63 g ai/ha, scale 0-100 (0 no damage, 100 complete death)): 90 | phytotoxicity rating AMARE ([9]; 250 g ai/ha, scale 0-100): 100 | phytotoxicity rating CASOB ([10]; 63 g ai/ha): 70 | phytotoxicity rating CASOB ([10]; 250 g ai/ha): 75 | phytotoxicity rating ABUTH ([11]; 63 g ai/ha): 100 | phytotoxicity rating ABUTH ([11]; 250 g ai/ha): 100 | crop damage rating CORN ([12]; 63 g ai/ha): 40 | crop damage rating CORN ([12]; 250 g ai/ha): 60 | crop damage rating RICE ([13]; 63 g ai/ha): 0 | crop damage rating RICE ([13]; 250 g ai/ha): 30 | phytotoxicity rating ECHCG ([14]; 63 g ai/ha): 75 | phytotoxicity rating ECHCG ([14]; 250 g ai/ha): 100 | phytotoxicity rating XANST ([15]; 63 g ai/ha): 75 | phytotoxicity rating XANST ([15]; 250 g ai/ha): 100 | phytotoxicity rating AMBEL ([16]; 63 g ai/ha): 100 | phytotoxicity rating AMBEL ([16]; 250 g ai/ha): 100 | phytotoxicity rating SETVI ([17]; 63 g ai/ha): 100 | phytotoxicity rating SETVI ([17]; 250 g ai/ha): 100 | phytotoxicity rating IPOHE ([18]; 63 g ai/ha): 100 | phytotoxicity rating IPOHE ([18]; 250 g ai/ha): 100 | phytotoxicity rating SORHA ([19]; 63 g ai/ha): 100 | phytotoxicity rating SORHA ([19]; 250 g ai/ha): 100 | phytotoxicity rating CHEAL ([20]; 63 g ai/ha): 100 | phytotoxicity rating CHEAL ([20]; 250 g ai/ha): 100 | phytotoxicity rating DIGSA ([21]; 63 g ai/ha): 100 | phytotoxicity rating DIGSA ([21]; 250 g ai/ha): 100 | phytotoxicity rating AMARE ([22]; 63 g ai/ha): 100 | phytotoxicity rating AMARE ([22]; 250 g ai/ha): 100 | phytotoxicity rating CASOB ([23]; 63 g ai/ha): 45 | phytotoxicity rating CASOB ([23]; 250 g ai/ha): 90 | phytotoxicity rating ABUTH ([24]; 63 g ai/ha): 100 | phytotoxicity rating ABUTH ([24]; 250 g ai/ha): 100 | crop damage rating CORN ([25]; 63 g ai/ha): 25 | crop damage rating CORN ([25]; 250 g ai/ha): 100 | crop damage rating RICE ([26]; 63 g ai/ha): 55 | crop damage rating RICE ([26]; 250 g ai/ha): 70
